ChEMBL document CHEMBL4602737, “Structure-Guided Identification of DNMT3B Inhibitors” (ACS Med Chem Lett, 2020)

How the values were obtained:
[1] = biological target: T1, DNA (cytosine-5)-methyltransferase 3B (Homo sapiens, UniProt Q9UBC3); experiment: Inhibition of human recombinant DNMT3B expressed in baculovirus infected insect cells using CpG site containing internally quenched hairpin oligonucleotide DNA substrate and SAM incubated for 30 mins by kinetic fluorogenic assay
[2] = biological target: DNA (cytosine-5)-methyltransferase 1 (Homo sapiens, UniProt P26358); experiment: Inhibition of human recombinant DNMT1 expressed in baculovirus infected insect cells using CpG site containing internally quenched hairpin oligonucleotide DNA substrate and SAM incubated for 30 mins by kinetic fluorogenic assay
Sequence of DNA (cytosine-5)-methyltransferase 1 (P26358 whole entry): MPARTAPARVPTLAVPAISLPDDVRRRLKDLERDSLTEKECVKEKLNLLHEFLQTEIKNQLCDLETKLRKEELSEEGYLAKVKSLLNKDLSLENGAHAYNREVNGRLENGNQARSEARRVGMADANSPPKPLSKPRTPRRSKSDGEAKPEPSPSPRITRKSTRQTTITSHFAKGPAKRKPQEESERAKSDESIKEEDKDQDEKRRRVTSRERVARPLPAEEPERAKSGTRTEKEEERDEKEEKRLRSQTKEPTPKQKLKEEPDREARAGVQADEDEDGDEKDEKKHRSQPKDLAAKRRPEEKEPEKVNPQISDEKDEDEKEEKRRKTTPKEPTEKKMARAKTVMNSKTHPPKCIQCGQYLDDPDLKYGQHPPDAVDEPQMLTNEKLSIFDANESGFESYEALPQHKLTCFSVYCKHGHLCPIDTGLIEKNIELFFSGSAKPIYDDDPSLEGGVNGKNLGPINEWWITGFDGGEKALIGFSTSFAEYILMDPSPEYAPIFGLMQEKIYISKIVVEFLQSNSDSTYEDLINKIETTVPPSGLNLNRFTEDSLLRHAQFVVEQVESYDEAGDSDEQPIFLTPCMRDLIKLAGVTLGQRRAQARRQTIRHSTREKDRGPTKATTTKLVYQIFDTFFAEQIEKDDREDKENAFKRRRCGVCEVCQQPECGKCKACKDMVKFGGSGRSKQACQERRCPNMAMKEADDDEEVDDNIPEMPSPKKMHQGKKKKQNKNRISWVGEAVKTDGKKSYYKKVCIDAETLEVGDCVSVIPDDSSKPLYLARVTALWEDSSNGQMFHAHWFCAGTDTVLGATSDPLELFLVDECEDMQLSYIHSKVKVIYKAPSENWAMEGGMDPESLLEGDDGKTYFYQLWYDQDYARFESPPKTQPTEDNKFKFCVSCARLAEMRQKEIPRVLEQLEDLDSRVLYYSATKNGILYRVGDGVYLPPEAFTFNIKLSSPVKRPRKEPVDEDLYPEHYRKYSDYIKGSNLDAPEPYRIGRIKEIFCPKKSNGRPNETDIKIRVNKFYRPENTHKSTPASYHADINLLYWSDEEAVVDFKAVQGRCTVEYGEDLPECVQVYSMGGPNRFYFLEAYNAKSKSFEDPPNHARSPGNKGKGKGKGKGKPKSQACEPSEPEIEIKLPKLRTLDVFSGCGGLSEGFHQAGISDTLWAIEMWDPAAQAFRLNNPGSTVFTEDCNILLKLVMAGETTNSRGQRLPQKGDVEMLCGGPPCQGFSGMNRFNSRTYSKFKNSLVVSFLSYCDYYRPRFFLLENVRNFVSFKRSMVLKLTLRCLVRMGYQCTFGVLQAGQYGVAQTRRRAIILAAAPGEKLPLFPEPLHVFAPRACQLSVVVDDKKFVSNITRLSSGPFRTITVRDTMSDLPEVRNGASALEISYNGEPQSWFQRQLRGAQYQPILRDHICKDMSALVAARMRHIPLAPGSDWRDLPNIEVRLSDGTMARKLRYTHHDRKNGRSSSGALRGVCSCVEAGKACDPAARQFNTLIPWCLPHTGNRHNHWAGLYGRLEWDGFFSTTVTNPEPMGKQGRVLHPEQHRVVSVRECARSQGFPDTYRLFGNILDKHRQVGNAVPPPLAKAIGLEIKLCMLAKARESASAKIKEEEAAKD

[3] = Toxicity in mouse; format: organism-based; conditions: in vivo
[4] = Cytotoxicity in African green monkey Vero cells assessed as reduction in cell viability; format: cell-based; conditions: chlorocebus sabaeus
[5] = biological target: T1, DNA (cytosine-5)-methyltransferase 3B; experiment: Inhibition of human recombinant DNMT3B expressed in baculovirus infected insect cells by DRONE assay

Compound	IC50 [1]	other results
O=C(O)[C@H](Cc1c[nH]c2ccccc12)N1C(=O)c2ccccc2C1=O		IC50 ([1]; read-out: IC50): 900 nM
CN(Cc1ccc2cc[nH]c2c1)C(=O)CCc1cccc(-c2cc3ccccc3[nH]2)c1	Not Active	
O=C(CSc1ncnc2sccc12)N1CCN(Cc2cc(=O)n3ccsc3n2)CC1		IC50 [2]: 27200 nM
CN(Cc1ccc2[nH]ccc2c1)C(=O)CCc1cccc(-c2nc3ccccc3[nH]2)c1	Not Active	
CN(Cc1ccc2[nH]ccc2c1)C(=O)CCc1cccc(-c2cc3ccccc3[nH]2)c1	Not Active	
O=C(CCc1cccc(-c2nc3ccccc3[nH]2)c1)NCc1ccc2[nH]ncc2c1	Not Active	
CN(Cc1ccc2cn[nH]c2c1)C(=O)CCc1cccc(-c2nc3ccccc3[nH]2)c1	Not Active	
Cc1ccc2c(=O)c(-c3nc(-c4cccc(F)c4)no3)cn(CC(=O)Nc3ccc4c(c3)OCO4)c2n1		IC50 [2]: 28500 nM
CN(Cc1ccc2cn[nH]c2c1)C(=O)CCc1cccc(-c2cc3ccccc3[nH]2)c1	Not Active	
CN(Cc1ccc2cc[nH]c2c1)C(=O)CCc1cccc(-c2nc3ccccc3[nH]2)c1	Not Active	
C[C@@H]1O[C@@H](CC(=O)O)CC2=C1C(=O)c1c(O)cccc1C2=O [NANAFROCIN]		IC50 ([1]; read-out: IC50): 1500 nM; LD50 [3]: 28 mg/kg; CC50 [4]: 700 nM; IC50 [5]: 730 nM
